Measurements reported in US9452980B2, “Substituted benzamides” (Hoffmann-La Roche Inc., priority 2009, dated 2016).
Counter-ions that a name gives are not always drawn. Like-named read-outs stand apart in the source and are kept apart here.

Assays:
rat TAAR1 = rat TAAR1 (Rattus norvegicus (Rat), UniProt Q923Y9); test: Radioligand binding assay on rat TAAR1
Outline: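 Membranes from HEK293 cells stably expressing rat TAAR1, with Kd checked per batch by saturation. Competition with ³H-(S)-4-[(ethyl-phenyl-amino)-methyl]-4,5-dihydro-oxazol-2-ylamine, compounds 10 pM–10 μM in duplicate, 1 hr at 4 °C. Filtration then scintillation counting; nonspecific binding defined with 10 μM unlabeled ligand.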

mouse TAAR1 = mouse TAAR1 (Mus musculus (Mouse), UniProt Q923Y8); test: Radioligand binding assay on mouse TAAR1
Chain of mouse TAAR1 (Q923Y8 whole entry): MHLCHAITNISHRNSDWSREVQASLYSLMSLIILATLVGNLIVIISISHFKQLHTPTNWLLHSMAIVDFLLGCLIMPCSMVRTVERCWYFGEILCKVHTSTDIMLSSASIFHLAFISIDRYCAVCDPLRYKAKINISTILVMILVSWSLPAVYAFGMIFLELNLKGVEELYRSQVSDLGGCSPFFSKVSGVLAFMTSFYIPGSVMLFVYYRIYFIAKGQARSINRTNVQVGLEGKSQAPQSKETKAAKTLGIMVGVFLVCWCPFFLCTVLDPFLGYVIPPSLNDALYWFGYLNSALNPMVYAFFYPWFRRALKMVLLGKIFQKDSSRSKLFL
Outline: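 Displacement of the tritiated oxazol-2-ylamine radioligand was measured by filtration and scintillation counting after 1 h incubation at 4 °C. Test concentrations ran 10 pM–10 μM in duplicate, with 10 μM cold ligand giving nonspecific binding. The receptor source was membranes of a stable mouse TAAR1 HEK293 line.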

[1] = rat TAAR1, HEK-293 membranes, second value of cell mouse/rat, read-out: Ki (μM) rat
[2] = mouse TAAR1, HEK-293 membranes, first value of cell mouse/rat, read-out: Ki (μM) mouse

Chain of rat TAAR1 (Q923Y9 whole entry): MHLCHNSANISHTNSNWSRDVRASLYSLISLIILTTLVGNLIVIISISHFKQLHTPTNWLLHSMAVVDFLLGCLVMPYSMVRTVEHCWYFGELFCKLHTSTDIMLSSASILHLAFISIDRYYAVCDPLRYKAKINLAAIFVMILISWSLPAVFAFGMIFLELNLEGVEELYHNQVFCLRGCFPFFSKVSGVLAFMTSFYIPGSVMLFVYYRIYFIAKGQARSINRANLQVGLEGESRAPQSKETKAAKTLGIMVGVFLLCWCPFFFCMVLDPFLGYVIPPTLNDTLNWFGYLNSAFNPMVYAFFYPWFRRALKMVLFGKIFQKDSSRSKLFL

| Ki (rat TAAR1; [1]) | Ki (mouse TAAR1; [2]) | Structure (SMILES) | also measured |
| --- | --- | --- | --- |
|  |  | CN(C(=O)Oc1ccccc1)c1ccc(C2CCNC2)cc1 (racemic) [Example 22, (RS)-Methyl-(4-pyrrolidin-3-yl-phenyl)-carbamic acid phenyl ester] | Ki (rat TAAR1): 2.37 µM; Ki (mouse TAAR1): 0.526 µM |
| 0.0028 µM | 0.0147 µM | CCc1ccc(C(=O)Nc2ccc(C3CNCCO3)cc2)cc1 (racemic) [Example 198, (RS)-4-Ethyl-N-(4-(morpholin-2-yl)phenyl)benzamide hydrochloride] |  |
| 0.005 µM | 0.0982 µM | N#Cc1ccc(C(=O)Nc2ccc(C3CNCCO3)cc2)cn1 (racemic) [Example 194, (RS)-2-(4-(6-cyanonicotinamido)phenyl)morpholin-4-ium chloride] |  |
| 0.0022 µM | 0.0008 µM | CCOc1ccc(C(=O)Nc2ccc(C3CCCNC3)cc2)nc1 (racemic) [Example 179, (RS)-5-Ethoxy-pyridine-2-carboxylic acid (4-piperidin-3-yl-phenyl)-amide; hydrochloride] |  |
| 0.102 µM | 0.0052 µM | COc1ccc(C(=O)Nc2ccc(C3CCNC3)cc2)c(F)c1 (racemic) [Example 88, (RS)-2-Fluoro-4-methoxy-N-(4-pyrrolidin-3-yl-phenyl)-benzamide hydrochloride] |  |
| 0.0018 µM | 0.287 µM | O=C(Nc1ccc([C@H]2CNCCCO2)cc1)c1cccc(Cl)c1 [Example 308, (S)—N-(4-(1,4-Oxazepan-2-yl)phenyl)-3-chlorobenzamide hydrochloride] |  |
| 0.0062 µM | 2.12 µM | Cc1ccc(C(=O)Nc2ccc([C@@H]3CCCNC3)cc2)cn1 [Example 243, (S)-6-Methyl-N-(4-(piperidin-3-yl)phenyl)nicotinamide hydrochloride] |  |
| 0.0069 µM | 0.0172 µM | O=C(Nc1ccc(C2CNCCO2)cc1)c1ccnc(C(F)(F)F)c1 (racemic) [Example 280, (RS)—N-(4-(Morpholin-2-yl)phenyl)-2-(trifluoromethyl)isonicotinamide hydrochloride] |  |
| 0.0011 µM | 0.0003 µM | O=C(Nc1ccc(C2CCNC2)cc1)OCCc1ccc(C(F)(F)F)cc1 (racemic) [Example 122, (RS)-(4-Pyrrolidin-3-yl-phenyl)-carbamic acid 2-(4-trifluoromethyl-phenyl)-ethyl ester] |  |
|  |  | O=C(Nc1ccc([C@H]2CNCCO2)cc1)c1ccc(OCC(F)(F)F)nc1 [Example 269, (S)—N-(4-(Morpholin-2-yl)phenyl)-6-(2,2,2-trifluoroethoxy)nicotinamide hydrochloride] | Ki (rat TAAR1; read-out: Ki (μM) rat): 0.003 µM; Ki (mouse TAAR1; read-out: Ki (μM) mouse): 0.0099 µM |
| 0.0121 µM | 0.273 µM | O=C(NCc1ccc([C@@H]2CNCCO2)cc1)c1ccc(OCC(F)(F)F)nc1 [Example 316, (R)—N-(4-(Morpholin-2-yl)benzyl)-6-(2,2,2-trifluoroethoxy)nicotinamide hydrochloride] |  |
| 0.0009 µM | 0.004 µM | COC(=O)c1ccc(COc2ccc(C(=O)Nc3ccc(C4CNCCO4)cc3)cc2)cc1 (racemic) [Example 211, (RS)-Methyl 4-((4-(4-(morpholin-2-yl)phenylcarbamoyl)phenoxy)methyl)benzoate hydrochloride] |  |
| 0.0027 µM | 0.0473 µM | O=C(Nc1ccc(CCC2CCCCN2)cc1)c1ccc(C(F)(F)F)cc1 (racemic) [Example 175, (RS)—N-(4-(2-(Piperidin-2-yl)ethyl)phenyl)-4-(trifluoromethyl)benzamide hydrochloride] |  |
| 0.0121 µM | 0.0871 µM | O=C(Nc1ccc(CCC2CCCN2)cc1)c1cnc(Cl)cn1 (racemic) [Example 164, (RS)-5-Chloro-N-(4-(2-(pyrrolidin-2-yl)ethyl)phenyl)pyrazine-2-carboxamide hydrochloride] |  |
| 0.0894 µM | 0.0108 µM | O=C(Cc1ccc(Cl)cc1)Nc1ccc(C2CCCNC2)cc1 (racemic) [Example 102, (RS)-2-(4-Chloro-phenyl)-N-(4-piperidin-3-yl-phenyl)-acetamide hydrochloride] |  |
| 0.004 µM | 0.0095 µM | O=C(Nc1ccc([C@H]2CCCNC2)cc1)c1ccc(Cl)cc1 [Example 113, 4-Chloro-N—((R)-4-piperidin-3-yl-phenyl)-benzamide] |  |
| 0.0012 µM | 0.0071 µM | Cc1cccc(NC(=O)Nc2ccc(C3CNCCO3)cc2)c1 (racemic) [Example 304, (RS)-1-(4-(Morpholin-2-yl)phenyl)-3-m-tolylurea hydrochloride] |  |
| 0.0363 µM | 0.0083 µM | O=C(Cc1ccc(Cl)cc1)Nc1ccc(C2CCNC2)cc1 (racemic) [Example 17, (RS)-2-(4-Chloro-phenyl)-N-(4-pyrrolidin-3-yl-phenyl)-acetamide hydrochloride] |  |
| 0.006 µM | 0.0059 µM | O=C(Nc1ccc(C2CCNC2)cc1)c1ccc(OCC(F)(F)F)nc1 (racemic) [Example 89, (RS)—N-(4-Pyrrolidin-3-yl-phenyl)-6-(2,2,2-trifluoro-ethoxy)-nicotinamide hydrochloride] |  |
| 0.007 µM | 0.0509 µM | O=C(Nc1ccc([C@H]2CNCCO2)cc1)c1ccc(Cl)cc1I [Example 301, (S)-4-Chloro-2-iodo-N-(4-(morpholin-2-yl)phenyl)benzamide] |  |
| 0.0941 µM | 0.335 µM | Cc1nc(C(=O)Nc2ccc(C3CNCCO3)cc2)cs1 (racemic) [Example 217, (RS)-2-Methyl-N-(4-(morpholin-2-yl)phenyl)thiazole-4-carboxamide hydrochloride] |  |
| 0.0375 µM | 0.0021 µM | O=C(Nc1ccc(CCC2CCCNC2)cc1)c1ccc(Cl)cc1 (racemic) [Example 110, (RS)-4-Chloro-N-[4-(2-piperidin-3-yl-ethyl)-phenyl]-benzamide hydrochloride] |  |
|  |  | O=C(Nc1ccc(C2CNCCO2)cc1)c1cc(Cl)nc(Cl)c1 (racemic) [Example 221, (RS)-2,6-Dichloro-N-(4-(morpholin-2-yl)phenyl)isonicotinamide hydrochloride] | Ki (rat TAAR1; read-out: Ki (μM) rat): 0.0037 µM; Ki (mouse TAAR1; read-out: Ki (μM) mouse): 0.005 µM |

| Structure (SMILES) | Ki (rat TAAR1; [1]) | Ki (mouse TAAR1; [2]) | also measured |
| --- | --- | --- | --- |
| O=C(Nc1ccc(C2CCCNC2)cc1)c1ccc(Cl)cc1Cl (racemic) [Example 99, (RS)-2,4-Dichloro-N-(4-piperidin-3-yl-phenyl)-benzamide hydrochloride] | 0.0501 µM | 0.013 µM |  |
| O=C(Nc1ccc([C@@H]2CCCNC2)cc1)c1ccc(Cl)c(Cl)c1 [Example 152, 3,4-Dichloro-N—((S)-4-piperidin-3-yl-phenyl)-benzamide hydrochloride] | 0.0003 µM |  | Ki (mouse TAAR1; read-out: Ki (μM) mouse): 0.0086 µM |
| Cc1cc(C(=O)Nc2ccc(C3CNCCO3)cc2)cc(Cl)n1 (racemic) [Example 273, (RS)-2-Chloro-6-methyl-N-(4-(morpholin-2-yl)phenyl)isonicotinamide hydrochloride] | 0.008 µM |  | Ki (mouse TAAR1; read-out: Ki (μM) mouse): 0.0343 µM |
| Cc1cc(C(=O)Nc2ccc(C3CNCCO3)cc2)ccn1 (racemic) [Example 294, (RS)-2-Methyl-N-(4-(morpholin-2-yl)phenyl)isonicotinamide dihydrochloride] | 0.0226 µM | 1.18 µM |  |
| O=C(Nc1ccc(C2CNCCO2)cc1)c1ccc(Oc2ccc(C(=O)O)c(Cl)c2)cc1 (racemic) [Example 215, (RS)-2-Chloro-4-(4-(4-(morpholin-2-yl)phenylcarbamoyl)phenoxy)benzoic acid hydrochloride] | 2.31 µM | 2.82 µM |  |
| O=C(Nc1ccc(C2CNCCO2)cc1)c1cnc(-c2ccccc2)s1 (racemic) [Example 231, (RS)—N-(4-(Morpholin-2-yl)phenyl)-2-phenylthiazole-5-carboxamide hydrochloride] | 0.0014 µM |  | Ki (mouse TAAR1; read-out: Ki (μM) mouse): 0.0043 µM |
| O=C(Nc1ccc([C@H]2CCCNC2)cc1)c1ccc(Cl)c(Cl)c1 [Example 150, 3,4-Dichloro-N—((R)-4-piperidin-3-yl-phenyl)-benzamide hydrochloride] | 0.0004 µM |  | Ki (mouse TAAR1; read-out: Ki (μM) mouse): 0.002 µM |
| O=C(Nc1ccc(CCC2CCCCN2)cc1)c1ccc(Cl)cn1 (racemic) [Example 171, (RS)-5-Chloro-N-(4-(2-(piperidin-2-yl)ethyl)phenyl)picolinamide hydrochloride] | 0.0101 µM | 0.198 µM |  |
| O=C(Nc1ccc([C@@H]2CCCNC2)cc1)c1cnc(Cl)cn1 [Example 238, 5-Chloro-pyrazine-2-carboxylic acid ((S)-4-piperidin-3-yl-phenyl)-amide hydrochloride] | 0.0056 µM |  | Ki (mouse TAAR1; read-out: Ki (μM) mouse): 1.12 µM |
| O=C(Nc1ccc([C@@H]2CCCNC2)cc1)c1cnc(Br)cn1 [Example 251, (S)-5-Bromo-N-(4-(piperidin-3-yl)phenyl)pyrazine-2-carboxamide 2,2,2-trifluoroacetate] |  | 0.48 µM | Ki (rat TAAR1; read-out: Ki (μM) rat): 0.0054 µM |
| O=C(Nc1ccc(C2CCNC2)cc1)Nc1ccc(Cl)c(Cl)c1 (racemic) [Example 3, (RS)-1-(3,4-Dichloro-phenyl)-3-(4-pyrrolidin-3-yl-phenyl)-urea hydrochloride] | 0.0016 µM | 0.0013 µM |  |
| CCOc1ccc(C(=O)Nc2ccc(C3CCNC3)cc2)cc1 (racemic) [Example 52, (RS)-4-Ethoxy-N-(4-pyrrolidin-3-yl-phenyl)-benzamide hydrochloride] | 0.0109 µM | 0.0017 µM |  |
| O=C(Nc1ccc(C2CNCCO2)cc1)c1cccc(Cl)c1 (racemic) [Example 209, (RS)-3-chloro-N-(4-(morpholin-2-yl)phenyl)benzamide hydrochloride] | 0.0016 µM | 0.0078 µM |  |
| O=C(Nc1ccc([C@H]2CCCNC2)cc1)c1cnc(Cl)cn1 [Example 239, 5-Chloro-pyrazine-2-carboxylic acid ((R)-4-piperidin-3-yl-phenyl)-amide hydrochloride] | 0.0085 µM |  | Ki (mouse TAAR1; read-out: Ki (μM) mouse): 0.0396 µM |
